Assay results as given in ChEMBL document CHEMBL5038640, “Natural Berberine-derived Azolyl Ethanols as New Structural Antibacterial Agents against Drug-Resistant Escherichia coli” (J Med Chem, 2022).
≈ marks a conversion by molar mass, not a printed value. Calls of active or inactive are those of the source. The rule behind the calls is not given here.

Legend:
Acinetobacter baumannii = assay: Antibacterial activity against Acinetobacter baumannii assessed as decrease in bacterial growth incubated for 18 hrs by broth microdilution method; format: functional
Staphylococcus aureus [1] = assay: Antibacterial activity against methicillin-resistant Staphylococcus aureus N315 assessed as decrease in bacterial growth incubated for 18 hrs by broth microdilution method; format: functional
Staphylococcus aureus [2] = assay: Antibacterial activity against Staphylococcus aureus ATCC 29213 assessed as decrease in bacterial growth incubated for 18 hrs by broth microdilution method; format: functional
Klebsiella pneumoniae = assay: Antibacterial activity against Klebsiella pneumoniae assessed as decrease in bacterial growth incubated for 18 hrs by broth microdilution method; format: functional
Staphylococcus aureus [3] = assay: Antibacterial activity against Staphylococcus aureus assessed as decrease in bacterial growth incubated for 18 hrs by broth microdilution method; format: functional
Enterococcus faecalis = assay: Antibacterial activity against Enterococcus faecalis assessed as decrease in bacterial growth incubated for 18 hrs by broth microdilution method; format: functional
Escherichia coli [4] = assay: Antibacterial activity against Escherichia coli ATCC 25922 assessed as decrease in bacterial growth incubated for 18 hrs by broth microdilution method; format: functional
Pseudomonas aeruginosa [5] = assay: Antibacterial activity against Pseudomonas aeruginosa assessed as decrease in bacterial growth incubated for 18 hrs by broth microdilution method; format: functional
Staphylococcus aureus [6] = assay: Antibacterial activity against Staphylococcus aureus ATCC 25923 assessed as decrease in bacterial growth incubated for 18 hrs by broth microdilution method; format: functional
Escherichia coli [7] = assay: Induction of bacterial resistance in Escherichia coli assessed as fold increase in MIC measured after 16 days by resistance development assay; format: functional; conditions: time 16.0 day
Pseudomonas aeruginosa [8] = assay: Antibacterial activity against Pseudomonas aeruginosa ATCC 27853 assessed as decrease in bacterial growth incubated for 18 hrs by broth microdilution method; format: functional
Escherichia coli [9] = assay: Antibacterial activity against Escherichia coli assessed as decrease in bacterial growth incubated for 18 hrs by broth microdilution method; format: functional
Cell membrane [10] = assay: Induction of membrane depolarization in Escherichia coli at 0.006 to 0.096 mM incubated for 6 hrs by DiSC35 dye-based fluorescence assay; format: subcellular; conditions: dose 0.006-0.096 mM
Escherichia coli [11] = assay: Induction of intracellular ROS production in Escherichia coli assessed as increase in ROS accumulation at 0.006 to 0.192 mM incubated for 6 hrs by DCFH-DA assay; format: functional, organism-based; conditions: dose 0.006-0.192 mM
DNA = assay: Competitive binding affinity to Escherichia coli DNA assessed as DNA intercalation by AO staining based assay; format: nucleic-acid assay
Cell membrane [12] = assay: Induction of cell membrane disruption in Escherichia coli assessed as increase in protein leakage upto 0.192 mM by Bradford assay; format: subcellular; conditions: dose mM <=0.192
Cell membrane [13] = assay: Induction of cell membrane disruption in Escherichia coli assessed as increase in protein leakage upto 0.224 mM by Bradford assay; format: subcellular; conditions: dose mM <=0.224
Cell membrane [14] = assay: Induction of membrane disruption in Escherichia coli at 2 times of MIC incubated for 6 hrs by DAPI staining and propidium iodide staining based fluorescence assay; format: subcellular
Cell membrane [15] = assay: Induction of Inner membrane permeabilization in Escherichia coli assessed as increase in fluorescence intensity at MIC incubated for 6 hrs by PI staining based assay; format: subcellular
Escherichia coli [16] = assay: Antibacterial activity against Escherichia coli assessed as reduction in metabolic activity in presence of resazurin measured after 6 hrs by alamar blue assay; format: functional, organism-based
Escherichia coli [17] = assay: Anti-bioflim activity against Escherichia coli assessed as inhibition of bioflim formation at MIC incubated for 24 hrs followed by compound washout by crystal violet staining based assay; format: functional
[18] = Aqueous solubility of the compound in saline; format: physicochemical
Calf thymus DNA = assay: Binding affinity to calf thymus DNA assessed as red shift in absorption spectra at pH 7.4 by UV-vis absorption spectroscopy; format: nucleic-acid assay; conditions: Bos taurus
[19] = Cytotoxicity against human FHC cells assessed as cell viability upto 0.100 mM incubated for 24 hrs by MTT assay; format: toxicity, cell-based; conditions: read-out: Activity
Cell membrane [20] = assay: Induction of outer membrane permeabilization in Escherichia coli assessed as increase in fluorescence intensity at MIC incubated for 6 hrs by NPN-dye based fluorescence assay; format: subcellular
Escherichia coli [21] = assay: Bactericidal activity against Escherichia coli assessed as reduction in colony formation at 8 times MIC measured after upto 6 hrs by time kill assay; format: functional, organism-based; conditions: time hrs <=6
Escherichia coli [22] = assay: Biofilm disruption activity in Escherichia coli assessed as mass loss of biofilm upto 0.096 mM incubated for 24 hrs by crystal violet staining based assay; format: functional, organism-based; conditions: dose mM <=0.096, time 24.0 hrs
A549 = assay: Cytotoxicity against human A549 cells assessed as cell viability upto 0.100 mM incubated for 24 hrs by MTT assay; format: functional, cell-based; conditions: dose mM <=0.100, time 24.0 hrs
[23] = Cytotoxicity against human PNT1A cells assessed as cell viability upto 0.100 mM incubated for 24 hrs by MTT assay; format: toxicity, cell-based; conditions: read-out: Activity
Escherichia coli [24] = assay: Biofilm disruption activity in Escherichia coli assessed as reduction in exo-polysaccharide incubated for 24 hrs by crystal violet staining based assay; format: functional, organism-based
Escherichia coli [25] = assay: Induction of bacterial resistance in Escherichia coli assessed as change in MIC measured after 16 days by resistance development assay; format: functional; conditions: time 16.0 day
[26] = Hemolytic activity against human RBC assessed as 50% hemolysis measured upto 64 times of MIC after 1 to 8 hr; format: toxicity, cell-based; conditions: erythrocyte, time 1-8 hrs
Escherichia coli [27] = assay: Biofilm disruption activity in Escherichia coli at MIC incubated for 24 hrs by crystal violet staining based assay; format: functional; conditions: dose 0.007 mM
Cell membrane [28] = assay: Induction of membrane depolarization in Escherichia coli at 0.007 to 0.112 mM incubated for 6 hrs by DiSC35 dye-based fluorescence assay; format: subcellular; conditions: dose 0.007-0.112 mM
Escherichia coli [29] = assay: Biofilm disruption activity in Escherichia coli assessed as mass loss of biofilm upto 0.112 mM incubated for 24 hrs by crystal violet staining based assay; format: functional, organism-based; conditions: dose mM <=0.112, time 24.0 hrs
Escherichia coli [30] = assay: Induction of intracellular ROS production in Escherichia coli assessed as increase in ROS accumulation at 0.007 to 0.224 mM incubated for 6 hrs by DCFH-DA assay; format: functional, organism-based; conditions: dose 0.007-0.224 mM

SMILES: CCn1cc(C(=O)O)c(=O)c2cc(F)c(N3CCNCC3)cc21 [NORFLOXACIN]
- MIC (Acinetobacter baumannii): 6 µM (≈ 1.92 µg/mL)
- MIC (Staphylococcus aureus [1]): 25 µM (≈ 7.98 µg/mL)
- MIC (Staphylococcus aureus [2]): 100 µM (≈ 31.9 µg/mL)
- MIC (Klebsiella pneumoniae): 6 µM (≈ 1.92 µg/mL)
- MIC (Staphylococcus aureus [3]): 2 µM (≈ 0.639 µg/mL)
- MIC (Enterococcus faecalis): 6 µM (≈ 1.92 µg/mL)
- MIC (Escherichia coli [4]): 13 µM (≈ 4.15 µg/mL)
- MIC (Pseudomonas aeruginosa [5]): 25 µM (≈ 7.98 µg/mL)
- MIC (Staphylococcus aureus [6]): 13 µM (≈ 4.15 µg/mL)
- fold change (FC) (Escherichia coli [7]): 64
- MIC (Pseudomonas aeruginosa [8]): 200 µM (≈ 63.9 µg/mL)
- MIC (Escherichia coli [9]): 13 µM (≈ 4.15 µg/mL)

SMILES: COc1ccc2cc3[n+](cc2c1OCC(O)CSc1nc2ccccc2s1)CCc1cc2c(cc1-3)OCO2.[Br-] (stereo not drawn)
- Activity (Cell membrane [10]): Active
- MIC (Acinetobacter baumannii): 26 µM
- Activity (Escherichia coli [11]): Active
- Activity (DNA): Active
- Activity (Cell membrane [12]): Active
- Activity (Cell membrane [13]): Active
- Activity (Cell membrane [14]): Active
- Activity (Cell membrane [15]): Active
- Activity (Escherichia coli [16]): Active
- inhibition (INH) (Escherichia coli [17]): 21.87%
- solubility [18]: 770 µM
- MIC (Staphylococcus aureus [1]): 6 µM
- Activity (Calf thymus DNA): Active
- viability at 24 h [19]: 70%
- Activity (Cell membrane [20]): Active
- Activity (Escherichia coli [21]): Active
- Activity (Escherichia coli [22]): Dose-Dependent Effect
- MIC (Staphylococcus aureus [2]): 51 µM
- Activity (A549): inactive
- MIC (Klebsiella pneumoniae): 13 µM
- viability at 24 h [23]: 70%
- MIC (Staphylococcus aureus [3]): 51 µM
- MIC (Enterococcus faecalis): 51 µM
- MIC (Escherichia coli [4]): 51 µM
- Activity (Escherichia coli [24]): Active
- MIC (Pseudomonas aeruginosa [5]): 102 µM
- MIC (Staphylococcus aureus [6]): 13 µM
- Activity (Escherichia coli [7]): inactive
- MIC (Pseudomonas aeruginosa [8]): 51 µM
- Activity (Escherichia coli [25]): inactive
- Activity [26]: Non-Toxic
- MIC (Escherichia coli [9]): 6 µM
- Activity (Escherichia coli [27]): 15%

SMILES: COc1ccc2cc3[n+](cc2c1OCC(O)Cn1c([N+](=O)[O-])cnc1C)CCc1cc2c(cc1-3)OCO2.[Br-] (stereo not drawn)
- MIC (Acinetobacter baumannii): 14 µM
- Activity (DNA): Active
- Activity (Cell membrane [12]): Active
- Activity (Cell membrane [28]): Active
- Activity (Cell membrane [13]): Active
- Activity (Cell membrane [14]): Active
- Activity (Cell membrane [15]): Active
- Activity (Escherichia coli [16]): Active
- inhibition (INH) (Escherichia coli [17]): 28.25%
- solubility [18]: 908 µM
- MIC (Staphylococcus aureus [1]): 14 µM
- Activity (Calf thymus DNA): Active
- viability at 24 h [19]: 70%
- Activity (Escherichia coli [29]): Dose-Dependent Effect
- Activity (Cell membrane [20]): Active
- Activity (Escherichia coli [21]): Active
- MIC (Staphylococcus aureus [2]): 55 µM
- Activity (A549): inactive
- Activity (Escherichia coli [30]): Active
- MIC (Klebsiella pneumoniae): 27 µM
- viability at 24 h [23]: 70%
- MIC (Staphylococcus aureus [3]): 109 µM
- MIC (Enterococcus faecalis): 14 µM
- MIC (Escherichia coli [4]): 55 µM
- Activity (Escherichia coli [24]): Active
- MIC (Pseudomonas aeruginosa [5]): 55 µM
- MIC (Staphylococcus aureus [6]): 55 µM
- Activity (Escherichia coli [7]): inactive
- MIC (Pseudomonas aeruginosa [8]): 55 µM
- Activity (Escherichia coli [25]): inactive
- Activity [26]: Non-Toxic
- MIC (Escherichia coli [9]): 7 µM
- Activity (Escherichia coli [27]): 40%
